Test system: HCT116
Experiment: efficacy (fitted maximal change in viability relative to DMSO control); higher = less cytotoxic (negative = loss of viability)
Settings: 48 h
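Further: Luminescence-based viability readout, five doses per compound, normalized against on-plate DMSO and empty-well controls, followed by dose-response curve fitting for every drug.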

SMILES	efficacy [%]
COc1ccccc1C(=O)Nc1cc2c(cc1N1CCCCC1)n(C)c(=O)n2C [GSK-5959]	-9.01
CC(=O)OCC(=O)[C@@]1(O)CC[C@H]2[C@@H]3CCC/4=C/C(=O)CC[C@]4(C)[C@H]3C(=O)C[C@]12C [Cortisone acetate]	22.5
CCC[C@H](NC(=O)[C@@H]1[C@H]2CCC[C@H]2CN1C(=O)[C@@H](NC(=O)[C@@H](NC(=O)c1cnccn1)C1CCCCC1)C(C)(C)C)C(=O)C(=O)NC1CC1 [Telaprevir (VX-950)]	-39.3
C=C(C)[C@@H]1CC[C@]2(C)CC[C@]3(C)[C@H](CC[C@@H]4[C@@]5(C)CC[C@H](O)C(C)(C)[C@@H]5CC[C@]43C)[C@@H]12 [Lupeol]	-15.6
Nc1nc(OC(c2ccc(-c3cccc(F)c3)cc2)C(F)(F)F)cc(-c2ccc(C[C@@H](N)C(=O)O)cc2)n1 (stereo not given in full)	-26
COC1=CC2=C(C=C1CC3=C(F)C(=CC=C3)Cl)C(=O)\C(=C/N2[C@H](CO)C(C)C)C(O)=O [Elvitegravir]	-72.2
N[C@@H]1CONC1=O [D-Cycloserine]	-29.8
O=C(COCC(=O)N1CCN(C(c2ccccc2)c2ccccc2)CC1)Nc1ccc(Cl)cc1C(=O)O [TM-5275]	6.23
CC1COC2=C3N1\C=C(C(O)=O)/C(=O)C3=CC(=C2N4CCN(C)CC4)F (stereo not given) [Ofloxacin]	-9.68
OC[C@@H](O)[C@@H](O)[C@H](O)[C@@H](O)CO [Mannitol]	13
COc1cc2ncnc(Nc3cc(Br)c(O)c(Br)c3)c2cc1OC [WHI-P97]	-37.8
O=[S+]([O-])(CC1CS1)c1ccc(Oc2ccccc2)cc1 (stereo not given) [SB-3CT]	-55.8
CC(C)NCC(O)COc1ccc(CCOCC2CC2)cc1 (stereo not given) [Betaxolol]	-9.42
CC1(C)CN(C(=O)c2ccc(-c3cccc4nc(NC(=O)C5CC5)nn34)cc2)C1 [Solcitinib]	-18.3
COc1ccc(C(=O)N2CCN(C(=O)/C=C/c3ccc(Br)cc3)CC2)cc1 [NIBR-189]	-15.1
CO[C@H]1C[C@@H]2CC[C@@H](C)[C@@](O)(O2)C(=O)C(=O)N2CCCC[C@H]2C(=O)O[C@H]([C@H](C)C[C@@H]2CC[C@@H](OC(=O)C(C)(CO)CO)[C@H](OC)C2)CC(=O)[C@H](C)/C=C(\C)[C@@H](O)[C@@H](OC)C(=O)[C@H](C)C[C@H](C)/C=C/C=C/C=C/1C [Temsirolimus]	-13.9
CC1=CC=CC=C1N2\C(=N/C3=C(C(=CC=C3)C)C2=O)C[N]4C=NC5=C4N=CN=C5N	-13.6
CCN(CC)CCCC[C@H](NC(=O)[C@H](CC(C)C)NC(=O)[C@H](C)NC(=O)[C@H](Cc1ccccc1)NC(=O)c1ccc(C(C)(C)C)cc1)C(=O)N[C@@H](CO)C(=O)OC [UNC-3866]	-18.9
CC(=O)O[C@@]12CO[C@@H]1C[C@H](O)[C@@]1(C)C(=O)[C@H](O)C3=C(C)[C@@H](OC(=O)[C@H](O)[C@@H](NC(=O)OC(C)(C)C)c4ccccc4)C[C@@](O)([C@@H](OC(=O)c4ccccc4)[C@H]21)C3(C)C [Docetaxel]	-56.4
CN(C)CCc1c[nH]c2ccc(C[S+](=O)([O-])N3CCCC3)cc12 [Almotriptan]	-6.46
CCOC(=O)C/1=C(C)/NC(=S)NC1C2=CC=CC(=C2)O (stereo not given) [Monastrol]	-52.1
Cc1onc(-c2ccc(F)cc2)c1COc1ccc(C(=O)N2CC[S+](=O)([O-])CC2)cn1 [Basmisanil]	-18.7
CN1C(=O)\C(=C/C2=C1N=C(NC3CCOCC3)N=C2)OC4=C(F)C=C(F)C=C4 [R-1487]	-14.4
CCCC\1=C(/CNC(=O)C2=CC(=CC3=C2C=N[N]3C(C)C)C4=CC=C(N=C4)N5CCN(CC5)C(C)C)C(=O)NC(=C1)\C [UNC-1999]	-25.5
CC(C)Oc1ccc(-c2nc(-c3cccc4c3CC[C@@H]4NCCO)no2)cc1C#N [Ozanimod]	-31.3

Source: the supplement of paper PMC10290057
